As usually defined, the EC50 is the concentration needed to bring the measured effect to its halfway point. A higher EC50 goes with a need for much substance.

The assay has as its target GLP-1R (Homo sapiens, UniProt P43220). As to the kind of experiment: GLP-1R Activation - cAMP Assay. The settings on record: each compound run on one of the two cAMP assays (Assay 1 or Assay 2, not specified). It counts as cell-based. The procedure, abridged:
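cAMP rise read by HTRF after 30 min agonist exposure (10-point titration, 37 °C) in HBSS/20 mM Hepes/0.1% BSA, following 1 h pre-incubation. Cells: stable GLP-1R CHO line, 1,000/well, seeded overnight. Sigmoidal fit of response vs log concentration gives EC50.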
(In general: cAMP levels reflect the balance of adenylyl cyclase and phosphodiesterase activity.)

The mark [1] stands for this setting: cAMP increase in CHO cells stably expressing GLP-1R.

GLP-1R, sequence (P43220 24-463): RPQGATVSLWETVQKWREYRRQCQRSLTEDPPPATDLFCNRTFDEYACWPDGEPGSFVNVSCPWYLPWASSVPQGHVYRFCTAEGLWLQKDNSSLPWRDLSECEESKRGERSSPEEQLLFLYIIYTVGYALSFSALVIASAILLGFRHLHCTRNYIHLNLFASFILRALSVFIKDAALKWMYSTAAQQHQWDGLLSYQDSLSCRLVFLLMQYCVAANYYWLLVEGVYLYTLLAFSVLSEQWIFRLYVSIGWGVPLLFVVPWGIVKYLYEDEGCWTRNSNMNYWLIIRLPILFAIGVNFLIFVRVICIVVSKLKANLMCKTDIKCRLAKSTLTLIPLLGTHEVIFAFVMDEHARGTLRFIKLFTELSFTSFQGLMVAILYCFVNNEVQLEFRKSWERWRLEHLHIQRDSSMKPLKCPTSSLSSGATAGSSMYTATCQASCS

Under setting [1], `CC1(C)COC[C@H]1n1c(Cc2cc(F)c(-c3cccc(OCc4ccc(-c5cnn(C(F)F)c5)cc4)n3)cc2F)nc2ccc(C(=O)O)cc21` [Example 551, (S)-2-(4-(6-((4-(1-(difluoromethyl)-1H-pyrazol-4-yl)benzyl)oxy)pyridin-2-yl)-2,5-difluorobenzyl)-1-(4,4-dimethyltetrahydrofuran-3-yl)-1H-benzo[d]imidazole-6-carboxylic acid] returned a concentration for a half-maximal effect (EC50) of 0.11 nM.
Regarding `COCCn1c(Cc2cc(F)c(-c3cccc(OCc4ccc(-c5cccnc5C)cc4F)n3)cc2F)nc2ccc(C(=O)O)cc21` [Example 104, 2-(2,5-difluoro-4-(6-((2-fluoro-4-(2-methylpyridin-3-yl)benzyl)oxy)pyridin-2-yl)benzyl)-1-(2-methoxyethyl)-1H-benzo[d]imidazole-6-carboxylic Acid], a half-maximal effect under setting [1] (EC50) was put at 41.3 nM.
`COCCn1c(Cc2c(F)cc(-c3cccc(OCc4ccc(C#N)cc4)n3)c(F)c2F)nc2c(F)cc(C(=O)O)cc21` [Example 378, 2-(4-(6-((4-cyanobenzyl)oxy)pyridin-2-yl)-2,3,6-trifluorobenzyl)-4-fluoro-1-(2-methoxyethyl)-1H-benzo[d]imidazole-6-carboxylic acid] returned an EC50 under setting [1] of 0.321 nM.
Turning to `CC(F)(F)c1ccc(COc2cccc(-c3cc(F)c(Cc4nc5ccc(C(=O)O)cc5n4[C@@H]4COCC4(C)C)cc3F)n2)nc1` [Example 195, (S)-2-(4-(6-((5-(1,1-difluoroethyl)pyridin-2-yl)methoxy)pyridin-2-yl)-2,5-difluorobenzyl)-1-(4,4-dimethyltetrahydrofuran-3-yl)-1H-benzo[d]imidazole-6-carboxylic acid], the response under setting [1] was half-maximal at 0.539 nM (EC50). Against the preceding compound, the EC50 is about 1.7-fold higher.
For `CC1(C)COC[C@H]1n1c(Cc2cc(F)c(-c3cccc(OCc4ccc(C#N)cc4F)n3)cc2F)nc2cnc(C(=O)O)cc21` [Example 422, (S)-2-(4-(6-((4-cyano-2-fluorobenzyl)oxy)pyridin-2-yl)-2,5-difluorobenzyl)-1-(4,4-dimethyltetrahydrofuran-3-yl)-1H-imidazo[4,5-c]pyridine-6-carboxylic acid], the EC50 under setting [1] worked out at 3.16 nM. This EC50 is about 5.9-fold higher than that of the compound before.
Regarding `CC1(C)COC[C@H]1n1c(Cn2cc(F)c(-c3ccc(F)c(OCc4ccc(C#N)cc4F)n3)cc2=O)nc2ccc(C(=O)O)cc21` [Example 328, (S)-2-((6-((4-cyano-2-fluorobenzyl)oxy)-5,5′-difluoro-2′-oxo-[2,4′-bipyridin]-1′(2′H)-yl)methyl)-1-(4,4-dimethyltetrahydrofuran-3-yl)-1H-benzo[d]imidazole-6-carboxylic acid], the EC50 under setting [1] amounted to 0.555 nM.
On to `CC(=O)N1C[C@@H]2[C@H](n3c(Cc4cc(F)c(-c5cccc(OCc6ccc(C#N)cc6F)n5)cc4F)nc4ccc(C(=O)O)cc43)CO[C@@H]2C1` [Example 18, 1-((3S,3aR,6aS)-5-acetylhexahydro-2H-furo[2,3-c]pyrrol-3-yl)-2-(4-(6-((4-cyano-2-fluorobenzyl)oxy)pyridin-2-yl)-2,5-difluorobenzyl)-1H-benzo[d]imidazole-6-carboxylic Acid], for which the midpoint of the response under setting [1], the EC50, lay at 49.2 nM.
Under setting [1], `COCCn1c(Cc2cc(F)c(-c3cccc(OCc4ncc(F)cc4F)n3)cc2F)nc2ccc(C(=O)O)cc21` [Example 31, 2-(4-(6-((3,5-difluoropyridin-2-yl)methoxy)pyridin-2-yl)-2,5-difluorobenzyl)-1-(2-methoxyethyl)-1H-benzo[d]imidazole-6-carboxylic Acid] showed an EC50 of 30.4 nM.
As to `COCCn1c(Cc2c(F)cc(-c3ccc(F)c(OCc4ccc(-n5ccnn5)cc4)n3)c(F)c2F)nc2c(F)cc(C(=O)O)cc21` [Example 223, 2-(4-(6-((4-(1H-1,2,3-triazol-1-yl)benzyl)oxy)-5-fluoropyridin-2-yl)-2,3,6-trifluorobenzyl)-4-fluoro-1-(2-methoxyethyl)-1H-benzo[d]imidazole-6-carboxylic acid], the EC50 under setting [1] was found to be 0.126 nM.
On the same count and under the same terms, in the case of `CC1(C)COC[C@H]1n1c(Cn2cc(Cl)c(-c3cccc(OCc4ccc(C#N)cc4F)n3)cc2=O)nc2c(F)cc(C(=O)O)cc21` [Example 326, (S)-2-((5′-chloro-6-((4-cyano-2-fluorobenzyl)oxy)-2′-oxo-[2,4′-bipyridin]-1′(2′H)-yl)methyl)-1-(4,4-dimethyltetrahydrofuran-3-yl)-4-fluoro-1H-benzo[d]imidazole-6-carboxylic acid] it was 0.236 nM.
Regarding `CC1(C)COCC1n1c(Cc2cc(F)c(-c3cccc(OCc4ccc(C#N)cc4F)n3)cc2F)nc2ccc(C(=O)O)c(F)c21` (stereo not drawn) [Example 165, 2-(4-(6-((4-cyano-2-fluorobenzyl)oxy)pyridin-2-yl)-2,5-difluorobenzyl)-1-(4,4-dimethyltetrahydrofuran-3-yl)-7-fluoro-1H-benzo[d]imidazole-6-carboxylic Acid], the EC50 under setting [1] was 0.553 nM.
Turning to `CC1(C)COC[C@H]1n1c(Cc2c(F)cc(-c3cccc(OCc4ccc(C#N)cc4)n3)c(F)c2F)nc2c(F)cc(C(=O)O)cc21` [Example 244, (S)-2-(4-(6-((4-cyanobenzyl)oxy)pyridin-2-yl)-2,3,6-trifluorobenzyl)-1-(4,4-dimethyltetrahydrofuran-3-yl)-4-fluoro-1H-benzo[d]imidazole-6-carboxylic acid], the midpoint of the response under setting [1], the EC50, lay at 0.015 nM.
Take `CC1(C)COC[C@H]1n1c(Cc2cc(F)c(-c3cccc(OCc4cnc(-n5ccnn5)cc4Cl)n3)cc2F)nc2c(F)cc(C(=O)O)cc21` [Example 171, (S)-2-(4-(6-((4-chloro-6-(1H-1,2,3-triazol-1-yl)pyridin-3-yl)methoxy)pyridin-2-yl)-2,5-difluorobenzyl)-1-(4,4-dimethyltetrahydrofuran-3-yl)-4-fluoro-1H-benzo[d]imidazole-6-carboxylic Acid]: the concentration giving a half-maximal response (EC50) under setting [1] is 0.05 nM. Against the preceding compound, the EC50 is about 3.3-fold higher.
Regarding `CC1(C)COC[C@H]1n1c(Cc2cc(F)c(-c3ccc(F)c(OCc4cc(F)c(C#N)cc4F)n3)cc2F)nc2ccc(C(=O)O)cc21` [Example 491, (S)-2-(4-(6-((4-cyano-2,5-difluorobenzyl)oxy)-5-fluoropyridin-2-yl)-2,5-difluorobenzyl)-1-(4,4-dimethyltetrahydrofuran-3-yl)-1H-benzo[d]imidazole-6-carboxylic acid], the EC50 under setting [1] was found to be 0.079 nM.
The compound `N#Cc1ccc(COc2cccc(-c3cc(F)c(Cc4nc5ccc(C(=O)O)cc5n4C4CC45CC5)cc3F)n2)c(F)c1` (stereo not drawn) [Example 62] showed an EC50 under setting [1] of 7.32 nM.
Take `CC1(C)COC[C@H]1n1c(Cc2cc(F)c(-c3cccc(OCc4ccc(C#N)cc4F)n3)cc2F)nc2c(F)cc(C(=O)O)cc21` [Example 12, (S)-2-(4-(6-((4-cyano-2-fluorobenzyl)oxy)pyridin-2-yl)-2,5-difluorobenzyl)-1-(4,4-dimethyltetrahydrofuran-3-yl)-4-fluoro-1H-benzo[d]imidazole-6-carboxylic Acid]: the EC50 under setting [1] turned out to be 0.03 nM.
On to `COCCn1cc(-c2ccc(COc3cccc(-c4cc(F)c(Cc5nc6ccc(C(=O)O)cc6n5CCOC)cc4F)n3)c(F)c2)cn1` [Example 106, 2-(2,5-difluoro-4-(6-((2-fluoro-4-(1-(2-methoxyethyl)-1H-pyrazol-4-yl)benzyl)oxy)pyridin-2-yl)benzyl)-1-(2-methoxyethyl)-1H-benzo[d]imidazole-6-carboxylic Acid], for which the EC50 under setting [1] amounted to 2.22 nM.
Under setting [1], `CC1(C)COC[C@H]1n1c(Cn2cc(Cl)c(-c3cccc(OCc4ccc(Cl)cc4F)n3)cc2=O)nc2c(F)cc(C(=O)O)cc21` [Example 327, (S)-2-((5′-chloro-6-((4-chloro-2-fluorobenzyl)oxy)-2′-oxo-[2,4′-bipyridin]-1′(2′H)-yl)methyl)-1-(4,4-dimethyltetrahydrofuran-3-yl)-4-fluoro-1H-benzo[d]imidazole-6-carboxylic acid] displayed an EC50 of 0.266 nM. This EC50 lies about 8.3-fold lower than the previous one.
Consider `COCCn1c(Cc2c(F)cc(-c3cccc(OCc4ccc(C#N)cc4F)n3)c3ncnn23)nc2ccc(C(=O)O)cc21` [Example 53], for which, under setting [1], the EC50 was 5.11 nM. This EC50 lies about 19-fold higher than the previous one.
As for `CC(=O)N1[C@@H](Cn2c(Cc3cc(F)c(-c4cccc(OCc5ccc(C#N)cc5F)n4)cc3F)nc3ccc(C(=O)O)cc32)C[C@H]2C[C@H]21` [Example 150, 1-(((1R,3R,5R)-2-acetyl-2-azabicyclo[3.1.0]hexan-3-yl)methyl)-2-(4-(6-((4-cyano-2-fluorobenzyl)oxy)pyridin-2-yl)-2,5-difluorobenzyl)-1H-benzo[d]imidazole-6-carboxylic Acid], for the setting “[…]”, it took 0.063 nM to reach a half-maximal effect (EC50). This lies in the picomolar range.
On to `CO[C@@H]1CC[C@@H]1n1c(Cc2cc(F)c(-c3cccc(OCc4ccc(C#N)cc4F)n3)cc2F)nc2ccc(C(=O)O)cc21` [Example 65, 2-(4-(6-((4-cyano-2-fluorobenzyl)oxy)pyridin-2-yl)-2,5-difluorobenzyl)-1-((1S,2R)-2-methoxycyclobutyl)-1H-benzo[d]imidazole-6-carboxylic Acid], for which, under setting [1], it took 5.05 nM to reach a half-maximal effect (EC50). This counts as single-digit nanomolar.
Under setting [1], `CC1(C)COC[C@H]1n1c(Cc2cc(F)c(-c3nc(OCc4ccc(C#N)cc4F)ccc3F)cc2F)nc2c(F)cc(C(=O)O)cc21` [Example 365, (S)-2-(4-(6-((4-cyano-2-fluorobenzyl)oxy)-3-fluoropyridin-2-yl)-2,5-difluorobenzyl)-1-(4,4-dimethyltetrahydrofuran-3-yl)-4-fluoro-1H-benzo[d]imidazole-6-carboxylic acid] came in with an EC50 of 0.124 nM.
On the same count and under the same terms, to `CO[C@H](C)Cn1c(Cc2cc(F)c(-c3cccc(OCc4ccc(-n5ccnn5)nc4)n3)cc2F)nc2c(F)cc(C(=O)O)cc21` [Example 352, (R)-2-(4-(6-((6-(1H-1,2,3-triazol-1-yl)pyridin-3-yl)methoxy)pyridin-2-yl)-2,5-difluorobenzyl)-4-fluoro-1-(2-methoxypropyl)-1H-benzo[d]imidazole-6-carboxylic acid] belongs 0.535 nM; to `COC(=O)N1Cc2ccc(COc3nc(-c4cc(F)c(Cc5nc6c(F)cc(C(=O)O)cc6n5C[C@@H]5CCO5)cc4F)ccc3F)cc2C1` [Example 515, (S)-2-(2,5-difluoro-4-(5-fluoro-6-((2-(methoxycarbonyl)isoindolin-5-yl)methoxy)pyridin-2-yl)benzyl)-4-fluoro-1-(oxetan-2-ylmethyl)-1H-benzo[d]imidazole-6-carboxylic acid], 0.074 nM.
